Results published in article PMC8839821, “Potential Mechanisms Involved in the Protective Effect of Dicaffeoylquinic Acids from Artemisia annua L. Leaves against Diabetes and Its Complications” (Molecules, 2022).

Experiments:
[1] = test system: human skin fibroblast (HSF) cells; assay: In vitro cell viability / cytotoxicity (SRB assay); assay type: cell-based; conditions: 72 h incubation, highest tested concentration 100 µg/mL
Description: (§1) Human Skin Fibroblasts (HSF) cell line was obtained from Nawah Scientific Inc. (Mokatam, Cairo, Egypt). Cells were kept in DMEM media with […] of streptomycin, 100 units/mL of penicillin and 10% of heat-inactivated fetal bovine serum in humidified, 5% (v/v) CO2 atmosphere at 37 °C.
Effect of the alcoholic extract and the isolated compounds on cell viability was evaluated to assess their safety utilizing SRB assay. An aliquot of 100 µL cell suspension (5 × 10^3 cells) was incubated with 100 μL media containing the test samples at concentrations (0.01, 0.1, 1, 10, 100 µg/mL) for 72 h. Media was removed and 150 μL of 10% TCA was added for fixing the cells that was further incubated at 4 °C for 1h. Cells were then washed with distilled water and 70 μL 0.4% SRB solution was added, and plates were placed in dark for 10 min. Plates were then washed with 1% acetic acid and left to dry overnight. 150 μL of 10 mM TRIS was then added and the absorbance was measured at 540 nm using a BMG LABTECH®-FLUOstar Omega microplate reader (Ortenberg, Germany). Experiments were done in triplicates and the IC50 was calculated.

[2] = Ferric Reducing Antioxidant Power (FRAP) assay; conditions: ART-CQ 50 µg/mL, isolated compounds 25 µg/mL
Description: The DetectX® Ferric Reducing Antioxidant Power (FRAP™) Detection Kit (Arbor assays, Ann Arbor, MI, USA) was used to estimate the antioxidant and ferric reducing activity of the polar fraction of A. annua and the isolated compounds in accordance with the method of Benzie and Strain (1996). ART-CQ was utilized in a concentration of (50 µg/mL) while the isolated compounds were used in a concentration of (25 µg/mL). Ferric chloride standard and ascorbic acid control were used in the assay and the FRAP values were estimated and presented as µM FeCl2.

[3] = test system: human skin fibroblast (HSF) cells; assay: Scratch wound healing assay; assay type: cell-based; conditions: for effect on scratch wound healing (in words): tested at 10, 100, 1000 µg/mL; for time to complete wound healing: control healed in 72 h
Description: as §1
The wound healing assay was conducted to evaluate the effect of different concentrations of the polar fraction and isolated compounds from Artemisia Annua on the migration ability of HSF cell line using the scratch wound healing assay as previously described. In a coated 12-well plates, cells were seeded at density of 2 × 10^5/well in 5% FBS-DMEM and cultured overnight at 37 °C and 5% CO2. On the following day, horizontal scratches were made into the confluent monolayer and the plates were washed with PBS and treated with fresh media containing the combined polar extract and the isolated compounds in concentrations of 10, 100, 1000 µg/mL. Control wells were done using only plain medium. The plates were incubated at 37 °C and 5% CO2 and images were captured using an inverted microscope at 24, 48 and 72 h time intervals. The acquired images were analyzed by MII ImageView software version 3.7. Experiments were performed in triplicates. Wound width was calculated as the average distance between the edges of the scratches. As cell migration enhanced, the wound width diminishes.

[4] = molecular target: T1, Dipeptidyl Peptidase IV (DPPIV) enzyme (Homo sapiens, UniProt P27487); assay: Dipeptidyl peptidase IV (DPPIV) inhibition assay (fluorometric inhibitor screening kit); assay type: biochemical; conditions: mean ± SEM of two replicates; read-out: DPPIV inhibitory activity IC50 (converted)
T1 construct: purchased Abnova
T1 sequence (P27487 whole entry, species assumed): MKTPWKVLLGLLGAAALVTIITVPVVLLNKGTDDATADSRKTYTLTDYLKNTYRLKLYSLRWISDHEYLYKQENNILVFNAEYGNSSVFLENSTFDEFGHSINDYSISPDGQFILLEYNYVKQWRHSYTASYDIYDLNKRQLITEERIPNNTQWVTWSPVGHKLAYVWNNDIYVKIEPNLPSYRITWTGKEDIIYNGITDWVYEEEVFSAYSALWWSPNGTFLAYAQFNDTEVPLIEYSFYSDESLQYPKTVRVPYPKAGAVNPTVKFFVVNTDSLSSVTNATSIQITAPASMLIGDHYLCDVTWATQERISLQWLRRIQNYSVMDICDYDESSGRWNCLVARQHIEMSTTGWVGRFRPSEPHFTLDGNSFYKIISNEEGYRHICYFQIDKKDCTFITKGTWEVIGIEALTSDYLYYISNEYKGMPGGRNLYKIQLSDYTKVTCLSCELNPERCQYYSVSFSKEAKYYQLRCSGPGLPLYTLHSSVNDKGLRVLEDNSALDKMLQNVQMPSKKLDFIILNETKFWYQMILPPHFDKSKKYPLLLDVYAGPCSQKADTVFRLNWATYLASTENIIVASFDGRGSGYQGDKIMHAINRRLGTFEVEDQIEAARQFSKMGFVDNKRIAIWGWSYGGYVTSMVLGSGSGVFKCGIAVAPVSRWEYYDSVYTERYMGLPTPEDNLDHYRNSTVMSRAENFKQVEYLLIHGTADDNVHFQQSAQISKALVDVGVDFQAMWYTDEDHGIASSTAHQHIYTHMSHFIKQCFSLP
Description: The dipeptidyl peptidase IV (DPPIV) inhibition effectiveness of the polar fraction of Artemisia annua (ART-CQ) and the isolated compounds was determined fluorometrically by using the DPPIV Inhibitor Screening Kit (Abnova, Taipei, Taiwan) following the manufacturer’s protocol. […] Then the enzyme substrate solution was added, and the […] was measured at Ex/Em = 360/460 nm. The plate was reincubated for 30 min at 37 °C and the […] was recorded again. Vidagliptin was used as the reference standard. The difference between the two readings was estimated and the IC50 was determined.

[5] = molecular target: T2, α-amylase enzyme (Sus scrofa, UniProt P00690); assay: α-Amylase inhibition assay (CNPG3 hydrolysis, kinetic); assay type: biochemical, porcine pancreas
T2 construct: Alpha-amylase (porcine pancreas); purchased Sigma-Aldrich; host or cells: porcine pancreas
T2 sequence (P00690 16-511): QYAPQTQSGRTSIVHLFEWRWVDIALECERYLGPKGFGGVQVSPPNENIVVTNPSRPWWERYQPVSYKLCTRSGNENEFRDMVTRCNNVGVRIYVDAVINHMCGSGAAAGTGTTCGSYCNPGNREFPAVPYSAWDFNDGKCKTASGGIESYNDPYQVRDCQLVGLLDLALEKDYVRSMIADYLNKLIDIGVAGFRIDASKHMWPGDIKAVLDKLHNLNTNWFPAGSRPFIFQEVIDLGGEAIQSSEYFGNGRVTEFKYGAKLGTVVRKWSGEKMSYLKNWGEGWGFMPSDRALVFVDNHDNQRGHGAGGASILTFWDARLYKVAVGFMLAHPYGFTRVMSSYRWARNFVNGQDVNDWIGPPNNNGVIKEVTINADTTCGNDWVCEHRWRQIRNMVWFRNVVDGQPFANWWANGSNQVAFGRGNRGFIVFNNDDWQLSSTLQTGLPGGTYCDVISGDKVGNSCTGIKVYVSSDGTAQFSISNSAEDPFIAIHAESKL
Description: Alpha-amylase (porcine pancreas), 2-chloro-4-nitrophenyl-D-maltotrioside (CNPG3) and tetramethylsilane were from Sigma-Aldrich (St. Louis, MO, USA) while the remaining chemicals were from UFC Biotechnology. Spectrophotometric readings were performed using the microplate reader (Anthos Zenyth 200RT, Cambridge, UK). ^1H-NMR (400 MHz) analysis was carried out using Bruker NMR Spectrometer (Bruker, Yokohama, Japan). Spectra were recorded in CD3OD or DMSO-d6 with tetramethylsilane being employed as an internal standard, and chemical shift values were expressed in ppm.
The inhibitory effect of the polar fraction (ART-CQ) and isolated compounds from Artemisia Annua on the activity of α-amylase enzyme was assessed kinetically as previously described. […] The change in absorbance per min is proportional to the enzyme activity. Various concentrations of ART-CQ (10, 50, 100, 200 µg/mL) and isolated compounds (5, 20, 50, 100 µg/mL) were preincubated with the enzyme for 15 min at 37 °C before the addition of CNPG3.

[6] = molecular target: α-glucosidase; assay: α-Glucosidase inhibition assay (inhibitor screening kit); assay type: biochemical; conditions: mean ± SEM of two replicates
Description: The in vitro α-glucosidase inhibitory potential of ART-CQ and its isolated compounds was evaluated using the α-Glucosidase Inhibitor Screening Kit (Biovision, Milpitas, CA, USA). […] After incubation, 20 µL of the α-Glucosidase Substrate in buffer was added and the absorbance was measured kinetically at 410 nm for 60 min. The polar fraction was tested in concentrations (10, 50, 100, 200 µg/mL) while the concentrations of the isolated compounds were (5, 20, 50, 100 µg/mL).
The change in absorbance is directly proportional to enzyme activity and the presence of enzyme inhibitor reduces the formation of the end product with the resultant decrease in absorbance.

[7] = DPPH radical scavenging assay; conditions: mean ± SEM of two replicates
Description: 2,2-diphenyl-1-picrylhydrazil (DPPH) Radical Scavenging Assay was exploited to assess the free radical scavenging potential of ART-CQ and the pure compounds according to Motaal et al., 2011 [52]. Different concentrations of ART-CQ (8, 16, 48, 64 µg/mL) and the isolated compounds (2, 4, 12, 16 µg/mL) were used. Ascorbic acid was used as the standard positive control and water was used in place of samples as a blank. The IC50 value for the test samples and standard was evaluated.

[8] = molecular target: aldose reductase enzyme (Homo sapiens, UniProt P15121); assay: Aldose reductase inhibition assay (NADPH decrease at 340 nm, screening kit)
Description: Aldose reductase inhibitory activity was determined kinetically by measuring the decrease in the absorption of NADPH at 340 nm in a reaction mixture containing, in addition to NADPH, the enzyme, DL-glyceraldehyde and the samples [50]. This was accomplished using the Aldose Reductase Inhibitor Screening Kit (Biovision, Milpitas, CA, USA), in accordance with the manufacturer’s instructions. […] Then 60 μL of NADPH and 90 μL of enzyme solution were added and the plate was incubated in dark for 20 min at 37 °C. Subsequently, 40 μL of DL-glyceraldehyde was pipetted and the absorbance was determined at 340 nm at 37 °C for 90 min.

Structure (SMILES)	IC50 [1]	FRAP value relative to that of ascorbic acid [2]	effect on scratch wound healing (in words) [3]	IC50 [4]	α-amylase inhibitory effect (in words) [5]	α-glucosidase inhibitory activity IC50 [6]	DPPH free radical scavenging, concentration for 50% scavenging (IC50) [7]	wound width as % of the original wound width at 48 h ([3]; 10 µg/mL, 48 h, control 37%)	time to complete wound healing ([3]; 10 µg/mL)	IC50 ([5]; mean ± SEM of two replicates)	IC50 [8]	wound width as % of the original wound width at 24 h ([3]; 10 µg/mL, 24 h, control 56%)
O=C(C=Cc1ccc(O)c(O)c1)OC1CC(O)(C(=O)O)CC(OC(=O)C=Cc2ccc(O)c(O)c2)C1O (stereo not drawn) [Compound 1, 3,5-dicaffeoylquinic acid]	> 100 µg/mL	about 8 times that of the ascorbic acid	inhibited cell migration and wound healing	436 nM	no α-amylase inhibitory effect	157.13 ± 6.82 µg/mL	30.94 ± 4.61 µg/mL					
COC(=O)C1(O)CC(O)C(OC(=O)C=Cc2ccc(O)c(O)c2)C(OC(=O)C=Cc2ccc(O)c(O)c2)C1 (stereo not drawn) [Compound 3, 3,4-dicaffeoylquinic acid methyl ester]	> 100 µg/mL	more than 30 times that of the ascorbic acid	improved the wound healing	1080 nM		250.42 ± 8.44 µg/mL	7.78 ± 0.24 µg/mL	23%	72 h	2850 nM	16800 nM	
O=C1O[C@H]([C@@H](O)CO)C(O)=C1O [ascorbic acid, reference compound]							5.50 ± 0.30 µg/mL					
O=C(C=Cc1ccc(O)c(O)c1)OC1CC(O)(C(=O)O)CC(O)C1OC(=O)C=Cc1ccc(O)c(O)c1 (stereo not drawn) [Compound 2, 4,5-dicaffeoylquinic acid]	> 100 µg/mL		improved the wound healing	4400 nM			14.94 ± 0.60 µg/mL		48 h			40%
